Consider 27 compounds from US20250197368A1 (priority 2020, published 2025).

Test [1] addresses human α2β3γ2 GABAARs (benzodiazepine site) (Homo sapiens (Human), UniProt P18507+P47869). Nature of the test: In vitro radioligand binding assay ([3H]Ro15-1788 displacement), α2-GABAAR Ki. Summed up: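 Membranes from dexamethasone-induced mouse L(tk−) cells stably expressing the human receptor were incubated 1 h at 4° C with 4 nM [3H]Ro15-1788 and graded compound; nonspecific binding with 1-3 μM TP003. Filter-bound radioactivity counted; Ki from IC50 by Cheng-Prusoff using the measured radioligand Kd.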

In the next test the test system is human α2β3γ2 GABAARs. The test is described as follows: In vitro electrophysiological recording assay (automated patch-clamp), α2-GABAAR relative efficacy. Format: cell-based. Conditions: % efficacy normalised to diazepam; GABA EC10-20; concentration generally >= 100 times Ki. The gist of the method:
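Automated whole-cell patch clamp at 20-22° C on L(tk^−) cells (QPatch, −65 mV) or HEK293 cells (SyncroPatch, −80 mV) stably expressing the human receptor. Compound pre-applied ≥1 min, then co-applied with GABA EC10-20; % potentiation of leak-corrected peak current, normalised to diazepam, typically at ≥100× Ki.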
(In general: Patch clamp records ionic current or voltage across a cell membrane.)

Structures can show the parent of a compound that is named as a salt.

Chain of human α2β3γ2 GABAARs (benzodiazepine site) (P47869 29-451): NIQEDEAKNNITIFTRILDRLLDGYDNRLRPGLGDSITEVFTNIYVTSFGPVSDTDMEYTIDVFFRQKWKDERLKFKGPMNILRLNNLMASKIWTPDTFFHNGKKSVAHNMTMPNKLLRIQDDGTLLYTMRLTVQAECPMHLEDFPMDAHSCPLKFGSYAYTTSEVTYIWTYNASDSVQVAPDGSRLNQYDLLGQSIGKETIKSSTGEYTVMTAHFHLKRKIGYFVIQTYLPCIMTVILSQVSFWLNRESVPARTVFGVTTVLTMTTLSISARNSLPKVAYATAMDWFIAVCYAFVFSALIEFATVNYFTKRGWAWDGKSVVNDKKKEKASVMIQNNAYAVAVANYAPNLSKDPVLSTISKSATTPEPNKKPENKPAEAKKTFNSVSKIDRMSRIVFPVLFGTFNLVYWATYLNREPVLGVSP
Chain of human α2β3γ2 GABAARs (benzodiazepine site) (P28472 26-473 partner): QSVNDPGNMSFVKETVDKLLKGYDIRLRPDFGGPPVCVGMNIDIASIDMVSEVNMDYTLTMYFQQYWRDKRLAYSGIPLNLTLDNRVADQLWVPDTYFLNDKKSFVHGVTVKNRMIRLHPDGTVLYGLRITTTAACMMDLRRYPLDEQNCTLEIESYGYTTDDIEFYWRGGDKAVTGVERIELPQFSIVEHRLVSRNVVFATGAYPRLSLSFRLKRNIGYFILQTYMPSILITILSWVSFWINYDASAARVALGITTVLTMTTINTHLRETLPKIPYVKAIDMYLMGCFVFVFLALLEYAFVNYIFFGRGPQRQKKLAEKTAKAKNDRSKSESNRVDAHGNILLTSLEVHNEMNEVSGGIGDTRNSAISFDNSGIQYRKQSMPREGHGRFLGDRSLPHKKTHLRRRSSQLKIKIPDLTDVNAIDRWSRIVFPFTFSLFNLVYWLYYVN
Chain of human α2β3γ2 GABAARs (benzodiazepine site) (P18507 40-475): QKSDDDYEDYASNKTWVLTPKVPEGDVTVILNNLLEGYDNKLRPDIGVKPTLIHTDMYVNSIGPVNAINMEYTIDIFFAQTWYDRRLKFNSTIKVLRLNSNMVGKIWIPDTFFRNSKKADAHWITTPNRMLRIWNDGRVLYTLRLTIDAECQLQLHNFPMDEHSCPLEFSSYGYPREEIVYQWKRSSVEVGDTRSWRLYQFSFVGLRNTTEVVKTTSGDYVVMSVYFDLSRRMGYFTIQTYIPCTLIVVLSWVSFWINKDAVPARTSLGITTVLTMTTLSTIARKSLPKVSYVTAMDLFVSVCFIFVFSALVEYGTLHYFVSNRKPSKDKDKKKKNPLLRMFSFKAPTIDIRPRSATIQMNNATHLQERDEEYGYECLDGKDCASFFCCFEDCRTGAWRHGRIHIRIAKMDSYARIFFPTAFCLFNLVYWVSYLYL

A word on the Ki: it is the dissociation constant of the complex between target and ligand, obtained from inhibition or displacement. As to `CCCNC(=O)c1c(N)c2cccc(-c3cc(OCc4cccnn4)ccc3F)c2[nH]c1=O` [Example 105, 4-Amino-8-[2-fluoro-5-(pyridazin-3-ylmethoxy)phenyl]-2-oxo-N-propyl-1H-quinoline-3-carboxamide], in test [1], the Ki amounted to 0.21 nM. The “α2-GABAAR Relative Efficacy (vs. Diazepam)” value (“α2-GABAAR Relative Efficacy” below) in the test on human α2β3γ2 GABAARs amounted to 0.19.

For the compound `CCCNC(=O)c1c(N)c2cccc(-c3cc(OCc4ccnnc4)ccc3F)c2[nH]c1=O` [Example 106, 4-Amino-8-[2-fluoro-5-(pyridazin-4-ylmethoxy)phenyl]-2-oxo-N-propyl-1H-quinoline-3-carboxamide], in test [1], the Ki was 0.41 nM. For the same compound, the “α2-GABAAR Relative Efficacy” value in the test on human α2β3γ2 GABAARs was 0.22.

With `CCCNC(=O)c1c(N)c2cccc(-c3cc(OCc4cncnc4)ccc3F)c2[nH]c1=O` [Example 107, 4-Amino-8-[2-fluoro-5-(pyrimidin-5-ylmethoxy)phenyl]-2-oxo-N-propyl-1H-quinoline-3-carboxamide], the inhibition constant (Ki) in test [1] was determined as 0.2 nM. For the same compound, the “α2-GABAAR Relative Efficacy” value in the test with human α2β3γ2 GABAARs amounted to 0.17.

On to `CCCNC(=O)c1c(N)c2cccc(-c3cc(OCc4cccnc4)ccc3F)c2[nH]c1=O` [Example 108, 4-Amino-8-[2-fluoro-5-(3-pyridylmethoxy)phenyl]-2-oxo-N-propyl-1H-quinoline-3-carboxamide], for which the Ki in test [1] was 0.39 nM. Moreover, in the test with human α2β3γ2 GABAARs, the “α2-GABAAR Relative Efficacy” value was determined as 0.32.

For the compound `CCCNC(=O)c1c(N)c2cccc(-c3cc(OCc4cccnc4C#N)ccc3F)c2[nH]c1=O` [Example 109, 4-Amino-8-[5-[(2-cyano-3-pyridyl)methoxy]-2-fluoro-phenyl]-2-oxo-N-propyl-1H-quinoline-3-carboxamide], in test [1], the Ki amounted to 0.17 nM. Also, the “α2-GABAAR Relative Efficacy” value with human α2β3γ2 GABAARs is listed as 0.21.

Consider `CCCNC(=O)c1c(N)c2cccc(-c3cc(COc4ccc(C)nc4)ccc3F)c2[nH]c1=O` [Example 112, 4-Amino-8-[2-fluoro-5-[(6-methyl-3-pyridyl)oxymethyl]phenyl]-2-oxo-N-propyl-1H-quinoline-3-carboxamide], for which the Ki in test [1] was found to be 0.57 nM. Besides, in the test with human α2β3γ2 GABAARs, the “α2-GABAAR Relative Efficacy” value was found to be 0.11.

With `CCCNC(=O)c1c(N)c2cccc(-c3cc(OCc4ccncc4)ccc3F)c2[nH]c1=O` [Example 113, 4-Amino-8-[2-fluoro-5-(4-pyridylmethoxy)phenyl]-2-oxo-N-propyl-1H-quinoline-3-carboxamide], the Ki in test [1] worked out at 0.12 nM. Moreover, in the test with human α2β3γ2 GABAARs, the “α2-GABAAR Relative Efficacy” value was 0.24.

Turning to `CCCNC(=O)c1c(N)c2cccc(-c3cc(OCc4ccc(F)cc4C#N)ccc3F)c2[nH]c1=O` [Example 114, 4-Amino-8-[5-[(2-cyano-4-fluoro-phenyl)methoxy]-2-fluoro-phenyl]-2-oxo-N-propyl-1H-quinoline-3-carboxamide], the Ki in test [1] turned out to be 0.73 nM. The “α2-GABAAR Relative Efficacy” value in the test on human α2β3γ2 GABAARs is reported as 0.38.

Regarding `CCCNC(=O)c1c(N)c2cccc(-c3cc(OCc4ccc(C#N)cc4OC)ccc3F)c2[nH]c1=O` [Example 115, 4-Amino-8-[5-[(4-cyano-2-methoxy-phenyl)methoxy]-2-fluoro-phenyl]-2-oxo-N-propyl-1H-quinoline-3-carboxamide], in test [1], the Ki was 2.01 nM. Also, in the test on human α2β3γ2 GABAARs, the “α2-GABAAR Relative Efficacy” value is on record as 0.34.

In the case of `CCCNC(=O)c1c(N)c2cccc(-c3cc(OCc4ccoc4)ccc3F)c2[nH]c1=O` [Example 116, 4-Amino-8-(2-fluoro-5-(furan-3-ylmethoxy)phenyl)-2-oxo-N-propyl-1,2-dihydroquinoline-3-carboxamide], in test [1], the Ki was 1.17 nM. In the test with human α2β3γ2 GABAARs, the “α2-GABAAR Relative Efficacy” value turned out to be 0.42.

Regarding `CCCNC(=O)c1c(N)c2cccc(-c3cc(OCc4scnc4C)ccc3F)c2[nH]c1=O` [Example 117, 4-Amino-8-[2-fluoro-5-[(4-methylthiazol-5-yl)methoxy]phenyl]-2-oxo-N-propyl-1H-quinoline-3-carboxamide], in test [1], the Ki stood at 1.6 nM. In addition, in the test with human α2β3γ2 GABAARs, the “α2-GABAAR Relative Efficacy” value is on record as 0.23.

In the case of `CCCNC(=O)c1c(N)c2cccc(-c3cc(OCc4nc(C)cs4)ccc3F)c2[nH]c1=O` [Example 118, 4-Amino-8-[2-fluoro-5-[(4-methylthiazol-2-yl)methoxy]phenyl]-2-oxo-N-propyl-1H-quinoline-3-carboxamide], the Ki in test [1] was determined as 0.5 nM. Also, the “α2-GABAAR Relative Efficacy” value in the test on human α2β3γ2 GABAARs came to 0.29.

On to `CCCNC(=O)c1c(N)c2cccc(-c3cc(OCc4cscn4)ccc3F)c2[nH]c1=O` [Example 119, 4-Amino-8-(2-fluoro-5-(thiazol-4-ylmethoxy)phenyl)-2-oxo-N-propyl-1,2-dihydroquinoline-3-carboxamide], for which, in test [1], the Ki was 0.31 nM. Moreover, the “α2-GABAAR Relative Efficacy” value with human α2β3γ2 GABAARs stood at 0.38.

As for `CCCNC(=O)c1c(N)c2cccc(-c3cc(OCc4coc(C(C)C)n4)ccc3F)c2[nH]c1=O` [Example 123, 4-Amino-8-[2-fluoro-5-[(2-isopropyloxazol-4-yl)methoxy]phenyl]-2-oxo-N-propyl-1H-quinoline-3-carboxamide], in test [1], the Ki worked out at 1.71 nM. Besides, the “α2-GABAAR Relative Efficacy” value in the test with human α2β3γ2 GABAARs was determined as 0.2549.

Regarding `CCCNC(=O)c1c(N)c2cccc(-c3cc(OCc4cncn4C)ccc3F)c2[nH]c1=O` [Example 125, 4-Amino-8-(2-fluoro-5-((1-methyl-1H-imidazol-5-yl)methoxy)phenyl)-2-oxo-N-propyl-1,2-dihydroquinoline-3-carboxamide], the Ki in test [1] was found to be 0.37 nM. The “α2-GABAAR Relative Efficacy” value in the test with human α2β3γ2 GABAARs is on record as 0.22.

As to `CCCNC(=O)c1c(N)c2cccc(-c3cc(OCc4cn(C)cn4)ccc3F)c2[nH]c1=O` [Example 126, hydrochloride], the inhibition constant Ki in test [1] is 1.19 nM. Besides, the “α2-GABAAR Relative Efficacy” value with human α2β3γ2 GABAARs is recorded as 0.27.

As for `CCCNC(=O)c1c(N)c2cccc(-c3cc(OCc4cc[nH]n4)ccc3F)c2[nH]c1=O` [Example 127, 4-Amino-8-[2-fluoro-5-(1H-pyrazol-3-ylmethoxy)phenyl]-2-oxo-N-propyl-1H-quinoline-3-carboxamide], the Ki in test [1] stood at 0.78 nM. In the test on human α2β3γ2 GABAARs, the “α2-GABAAR Relative Efficacy” value amounted to 0.24.

Consider `CCCNC(=O)c1c(N)c2cccc(-c3cc(OCc4ccn(C)n4)ccc3F)c2[nH]c1=O` [Example 128, 4-Amino-8-[2-fluoro-5-[(1-methylpyrazol-3-yl)methoxy]phenyl]-2-oxo-N-propyl-1H-quinoline-3-carboxamide], for which, in test [1], the Ki was 1.08 nM. For the same compound, the “α2-GABAAR Relative Efficacy” value in the test with human α2β3γ2 GABAARs is given as 0.24.

`CCCNC(=O)c1c(N)c2cccc(-c3cc(OCc4cn(C)nn4)ccc3F)c2[nH]c1=O` [Example 129, 4-Amino-8-[2-fluoro-5-[(1-methyltriazol-4-yl)methoxy]phenyl]-2-oxo-N-propyl-1H-quinoline-3-carboxamide]: in test [1], the Ki came to 0.65 nM. Moreover, in the test with human α2β3γ2 GABAARs, the “α2-GABAAR Relative Efficacy” value was found to be 0.25.

`CCCNC(=O)c1c(N)c2cccc(-c3cc(OCc4noc(C)n4)ccc3F)c2[nH]c1=O` [Example 130, 4-Amino-8-[2-fluoro-5-[(5-methyl-1,2,4-oxadiazol-3-yl)methoxy]phenyl]-2-oxo-N-propyl-1H-quinoline-3-carboxamide]: the Ki in test [1] was found to be 0.65 nM. Further, the “α2-GABAAR Relative Efficacy” value in the test with human α2β3γ2 GABAARs came to 0.18.

`CCCNC(=O)c1c(N)c2cccc(-c3cc(OCc4nnc(C)o4)ccc3F)c2[nH]c1=O` [Example 131, 4-Amino-8-(2-fluoro-5-((5-methyl-1,3,4-oxadiazol-2-yl)methoxy)phenyl)-2-oxo-N-propyl-1,2-dihydroquinoline-3-carboxamide]: in test [1], the Ki turned out to be 0.3 nM. Besides, in the test on human α2β3γ2 GABAARs, the “α2-GABAAR Relative Efficacy” value is reported as 0.40.

On to `CCCNC(=O)c1c(N)c2cccc(-c3cc(OCc4ccc5[nH]cnc5c4)ccc3F)c2[nH]c1=O` [Example 133, 8-(5-((1H-Benzo[d]imidazol-5-yl)methoxy)-2-fluorophenyl)-4-amino-2-oxo-N-propyl-1,2-dihydroquinoline-3-carboxamide], for which, in test [1], the Ki stood at 1.29 nM. Moreover, the “α2-GABAAR Relative Efficacy” value in the test with human α2β3γ2 GABAARs is reported as 0.23.

As for `CCCNC(=O)c1c(N)c2cccc(-c3cc(OCCn4cnnc4)ccc3F)c2[nH]c1=O` [Example 134, 4-Amino-8-[2-fluoro-5-[2-(1,2,4-triazol-4-yl)ethoxy]phenyl]-2-oxo-N-propyl-1H-quinoline-3-carboxamide], the Ki in test [1] worked out at 0.17 nM. Further, in the test with human α2β3γ2 GABAARs, the “α2-GABAAR Relative Efficacy” value is 0.04.

On to `CCCNC(=O)c1c(N)c2cccc(-c3cc(OCC4CCOCC4)ccc3F)c2[nH]c1=O` [Example 135, 4-Amino-8-[2-fluoro-5-(tetrahydropyran-4-ylmethoxy)phenyl]-2-oxo-N-propyl-1H-quinoline-3-carboxamide], for which the Ki in test [1] is 0.7 nM. The “α2-GABAAR Relative Efficacy” value in the test with human α2β3γ2 GABAARs is 0.20.

As for `CCCNC(=O)c1c(N)c2cccc(-c3cc(OCC4COC4)ccc3F)c2[nH]c1=O` [Example 136, 4-Amino-8-[2-fluoro-5-(oxetan-3-ylmethoxy)phenyl]-2-oxo-N-propyl-1H-quinoline-3-carboxamide], in test [1], the Ki came out at 0.9 nM. In the test on human α2β3γ2 GABAARs, the “α2-GABAAR Relative Efficacy” value was 0.24.

As to `CCCNC(=O)c1c(N)c2cccc(-c3cc(CN4CC5(CCN(C)C5)C4)ccc3F)c2[nH]c1=O` [Example 139, 4-Amino-8-(2-fluoro-5-((6-methyl-2,6-diazaspiro[3.4]octan-2-yl)methyl)phenyl)-2-oxo-N-propyl-1,2-dihydroquinoline-3-carboxamide], the Ki in test [1] is 1.08 nM. Also, the “α2-GABAAR Relative Efficacy” value in the test with human α2β3γ2 GABAARs is on record as 0.18.

As for `CCCNC(=O)c1c(N)c2cccc(-c3cc(CN4CC5(CCN(C)CC5)C4)ccc3F)c2[nH]c1=O` [Example 140, 4-Amino-8-(2-fluoro-5-((7-methyl-2,7-diazaspiro[3.5]nonan-2-yl)methyl)phenyl)-2-oxo-N-propyl-1,2-dihydroquinoline-3-carboxamide], in test [1], the Ki was found to be 1.88 nM. In addition, the “α2-GABAAR Relative Efficacy” value with human α2β3γ2 GABAARs is 0.34.
